Measurements as given in the supplement of paper PMC11451515.

Tests used:
Conditions in all cases: 48 h
NOMO1 [1] = experiment: cell viability relative to DMSO control; higher = less cytotoxic
How it was run: (§1)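 NOMO1 or SEM cells were plated at 500 cells/well and P12-Ichikawa cells at 1000 cells/well in 1536-well plates (5 μl), after each leukemia line had been adapted for at least four passages in each medium. Pin dosing delivered library compounds in DMSO at 11 threefold concentrations, 47 μM to 0.79 nM. CellTiter-Glo One luminescence was read after 48 h at 37°C. Viability is reported as a per-plate percentage of DMSO wells, with cell-free wells as background.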

P12-Ichikawa [2] = experiment: as above
How it was run: as §1

SEM cells [3] = experiment: as above
How it was run: as §1

NOMO1 [4] = experiment: AUC of viability dose-response curve (% viability x log10 dose units); higher = less sensitive
How it was run: (§2)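 Leukemia cells adapted to each medium (500 or 1000 cells/well, 1536-well plates) were exposed to library compounds in DMSO for 48 h at 37°C at 11 threefold doses, 47 μM to 0.79 nM. Luminescence by CellTiter-Glo One was normalised per plate to DMSO and cell-free wells, then fitted with a four-parameter log-logistic curve on log10 dose. Curves above full viability were scaled and quality-control failures removed before area under the curve was integrated by trapezoidal rule.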

P12-Ichikawa [5] = experiment: as above
How it was run: as §2

SEM cells [6] = experiment: as above
How it was run: as §2

COC1=CC=CC=C1C2=CC=CC(=C2)C/3=C(O)/C4=CC(=C(Cl)C=C4NC3=O)C#N
cell viability [%]
Conditions | NOMO1 [1] | P12-Ichikawa [2] | SEM cells [3]
HPLM + 10% dialyzed FBS, 0.000781 µM | 110 | 98.4 | 79.2
HPLM + 10% dialyzed FBS, 0.00234 µM | 120 | 106 | 92.5
HPLM + 10% dialyzed FBS, 0.00702 µM | 109 | 111 | 88.2
HPLM + 10% dialyzed FBS, 0.0211 µM | 109 | 114 | 93.5
HPLM + 10% dialyzed FBS, 0.0632 µM | 129 | 107 | 101
HPLM + 10% dialyzed FBS, 0.19 µM | 114 | 112 | 97.5
HPLM + 10% dialyzed FBS, 0.569 µM | 107 | 109 | 92.1
HPLM + 10% dialyzed FBS, 1.71 µM | 103 | 92.8 | 85.7
HPLM + 10% dialyzed FBS, 5.12 µM | 31.2 | 10.2 | 39.6
HPLM + 10% dialyzed FBS, 15.4 µM | 5.52 | 6.7 | 9.1
HPLM + 10% dialyzed FBS, 46.1 µM | 1.77 | 10.6 | 4.47
RPMI 5 mM glucose + 10% FBS, 0.000781 µM | 89.6 | 99.3 | 73.4
RPMI 5 mM glucose + 10% FBS, 0.00234 µM | 111 | 110 | 89.9
RPMI 5 mM glucose + 10% FBS, 0.00702 µM | 113 | 107 | 90.7
RPMI 5 mM glucose + 10% FBS, 0.0211 µM | 98.5 | 116 | 103
RPMI 5 mM glucose + 10% FBS, 0.0632 µM | 107 | 123 | 83
RPMI 5 mM glucose + 10% FBS, 0.19 µM | 108 | 115 | 81.3
RPMI 5 mM glucose + 10% FBS, 0.569 µM | 113 | 114 | 63.9
RPMI 5 mM glucose + 10% FBS, 1.71 µM | 110 | 106 | 48
RPMI 5 mM glucose + 10% FBS, 5.12 µM | 82.4 | 64.3 | 7.21
RPMI 5 mM glucose + 10% FBS, 15.4 µM | 13.4 | 4.25 | 4.33
RPMI 5 mM glucose + 10% FBS, 46.1 µM | 2.44 | 5.71 | 2.82
RPMI 5 mM glucose + 10% dialyzed FBS, 0.000781 µM | 92.2 | 95.2 | 87.3
RPMI 5 mM glucose + 10% dialyzed FBS, 0.00234 µM | 103 | 99.1 | 102
RPMI 5 mM glucose + 10% dialyzed FBS, 0.00702 µM | 95.4 | 105 | 92.9
RPMI 5 mM glucose + 10% dialyzed FBS, 0.0211 µM | 93.6 | 105 | 98.7
RPMI 5 mM glucose + 10% dialyzed FBS, 0.0632 µM | 96.4 | 99.6 | 93.4
RPMI 5 mM glucose + 10% dialyzed FBS, 0.19 µM | 88.3 | 101 | 102
RPMI 5 mM glucose + 10% dialyzed FBS, 0.569 µM | 104 | 110 | 93.4
RPMI 5 mM glucose + 10% dialyzed FBS, 1.71 µM | 108 | 94 | 69
RPMI 5 mM glucose + 10% dialyzed FBS, 5.12 µM | 84.5 | 45.5 | 21.6
RPMI 5 mM glucose + 10% dialyzed FBS, 15.4 µM | 21 | 5.98 | 7.81
RPMI 5 mM glucose + 10% dialyzed FBS, 46.1 µM | 4.29 | 6.01 | 3.41

AUC of viability dose-response curve
Conditions | NOMO1 [4] | P12-Ichikawa [5] | SEM cells [6]
HPLM + 10% dialyzed FBS | 368 | 361 | 350
RPMI 5 mM glucose + 10% FBS | 401 | 388 | 288
RPMI 5 mM glucose + 10% dialyzed FBS | 400 | 380 | 344

CC(C)NCC(O)COc1ccc(COCCOC(C)C)cc1 (stereo unspecified)
cell viability [%]
Conditions | NOMO1 [1] | P12-Ichikawa [2] | SEM cells [3]
HPLM + 10% dialyzed FBS, 0.000781 µM | 114 | 115 | 110
HPLM + 10% dialyzed FBS, 0.00234 µM | 110 | 117 | 115
HPLM + 10% dialyzed FBS, 0.00702 µM | 121 | 105 | 122
HPLM + 10% dialyzed FBS, 0.0211 µM | 113 | 103 | 103
HPLM + 10% dialyzed FBS, 0.0632 µM | 122 | 113 | 124
HPLM + 10% dialyzed FBS, 0.19 µM | 99.8 | 118 | 105
HPLM + 10% dialyzed FBS, 0.569 µM | 118 | 112 | 129
HPLM + 10% dialyzed FBS, 1.71 µM | 109 | 96.5 | 132
HPLM + 10% dialyzed FBS, 5.12 µM | 109 | 92.6 | 116
HPLM + 10% dialyzed FBS, 15.4 µM | 95.4 | 107 | 110
HPLM + 10% dialyzed FBS, 46.1 µM | 73.1 | 99.5 | 118
RPMI 5 mM glucose + 10% FBS, 0.000781 µM | 108 | 113 | 106
RPMI 5 mM glucose + 10% FBS, 0.00234 µM | 116 | 121 | 124
RPMI 5 mM glucose + 10% FBS, 0.00702 µM | 108 | 120 | 130
RPMI 5 mM glucose + 10% FBS, 0.0211 µM | 107 | 120 | 120
RPMI 5 mM glucose + 10% FBS, 0.0632 µM | 114 | 131 | 132
RPMI 5 mM glucose + 10% FBS, 0.19 µM | 116 | 124 | 118
RPMI 5 mM glucose + 10% FBS, 0.569 µM | 107 | 115 | 109
RPMI 5 mM glucose + 10% FBS, 1.71 µM | 110 | 110 | 123
RPMI 5 mM glucose + 10% FBS, 5.12 µM | 97.3 | 110 | 121
RPMI 5 mM glucose + 10% FBS, 15.4 µM | 103 | 116 | 131
RPMI 5 mM glucose + 10% FBS, 46.1 µM | 91.4 | 115 | 105
RPMI 5 mM glucose + 10% dialyzed FBS, 0.000781 µM | 111 | 113 | 123
RPMI 5 mM glucose + 10% dialyzed FBS, 0.00234 µM | 111 | 106 | 125
RPMI 5 mM glucose + 10% dialyzed FBS, 0.00702 µM | 119 | 107 | 124
RPMI 5 mM glucose + 10% dialyzed FBS, 0.0211 µM | 105 | 111 | 115
RPMI 5 mM glucose + 10% dialyzed FBS, 0.0632 µM | 129 | 114 | 117
RPMI 5 mM glucose + 10% dialyzed FBS, 0.19 µM | 111 | 104 | 129
RPMI 5 mM glucose + 10% dialyzed FBS, 0.569 µM | 111 | 105 | 118
RPMI 5 mM glucose + 10% dialyzed FBS, 1.71 µM | 99.7 | 104 | 138
RPMI 5 mM glucose + 10% dialyzed FBS, 5.12 µM | 111 | 104 | 106
RPMI 5 mM glucose + 10% dialyzed FBS, 15.4 µM | 116 | 104 | 126
RPMI 5 mM glucose + 10% dialyzed FBS, 46.1 µM | 88.7 | 104 | 114

AUC of viability dose-response curve
Conditions | NOMO1 [4] | P12-Ichikawa [5] | SEM cells [6]
HPLM + 10% dialyzed FBS | 458 | 457 | 468
RPMI 5 mM glucose + 10% FBS | 461 | 463 | 474
RPMI 5 mM glucose + 10% dialyzed FBS | 459 | 463 | 469
